Experimental data published in US10538491B2, “4,5-substituted picolinamide and picolinonitrile metabotropic glutamate receptor 2 negative allosteric modulators” (Vanderbilt University, priority 2015, dated 2020).

Biological target: rat mGlu2 (Rattus norvegicus (Rat), UniProt P31421)
Assay: mGlu2 Ca2+ flux assay
Type: cell-based
Conditions: for IC50: Gα15 HEK293 cells stably expressing rat mGlu2, glutamate EC80, >10,000 = no plateau, >30,000 = no measurable activity; for remaining activity at 30 µM: amplitude of response in the presence of 30 μM test compound as percentage of maximal response to glutamate, read-out: rat mGlu2 Glu max; for NAM designation: concentration-dependent decrease in the glutamate EC80 response
Experimental: Gα15 HEK293 cells stably expressing rat mGlu2 were plated in black-walled, clear-bottomed, poly-D-lysine coated 384-well plates in 20 μL of assay medium (DMEM containing 10% dialyzed FBS, 20 mM HEPES, and 1 mM sodium pyruvate) at a density of 12K cells/well. The cells were grown overnight at 37° C. in the presence of 5% CO2. The next day, medium was removed and the cells incubated with 20 μL of 2.3 μM Fluo-4, AM prepared as a 2.3 mM stock in DMSO and mixed in a 1:1 ratio with 10% (w/v) pluronic acid F-127 and diluted in assay buffer (Hank's balanced salt solution, 20 mM HEPES, and 2.5 mM probenecid) for 45 minutes at 37° C. Dye was removed, 20 μL of assay buffer was added, and the plate was incubated for 5 minutes at room temperature.
Ca^2+ flux was measured using the Functional Drug Screening System (FDSS7000, Hamamatsu, Japan). After establishment of a fluorescence baseline for about 3 seconds, the compounds of the present invention were added to the cells, and the response in cells was measured. 2.3 minutes later an EC20 concentration of the mGlu2 receptor agonist glutamate was added to the cells, and the response of the cells was measured for 1.9 minutes; an EC80 concentration of agonist was added and readings taken for an additional 1.7 minutes. All test compounds were dissolved and diluted to a concentration of 10 mM in 100% DMSO. Compounds were then serially diluted 1:3 in DMSO into 10 point concentration response curves, transferred to daughter plates, and further diluted into assay buffer to a 2× stock. Calcium fluorescence measures were recorded as fold over basal fluorescence; raw data was then normalized to the maximal response to glutamate. Antagonism of the agonist response of the mGlu2 receptor in the present invention was observed as a decrease in response to nearly maximal concentrations of glutamate in the presence of compound compared to the response to glutamate in the absence of compound.
The raw data file containing all time points was used as the data source in the analysis template. This was saved by the FDSS as a tab-delimited text file. Data were normalized using a static ratio function (F/F0) for each measurement of the total 360 values per well divided by each well's initial value. Data were then reduced to peak amplitudes (Max−Initial Min) using a time range that starts approximately 3 seconds prior to the glutamate EC80 addition and continues for approximately 90 seconds. This is sufficient time to capture the peak amplitude of the cellular calcium response. Individual amplitudes were expressed as % ECMax by multiplying each amplitude by 100 and then dividing the product by the mean of the amplitudes derived from the glutamate ECMax-treated wells. IC50 values for test compounds were generated by fitting the normalized values versus the log of the test compound concentration (in mol/L) using a 4 parameter logistic equation where none of the parameters were fixed. Each of the three values collected at each concentration of test compound were weighted evenly.
For NAMs, potency (IC50) and maximum response (% Glu Max), i.e. the amplitude of response in the presence of 30 μM test compound as a percentage of the maximal response to glutamate, are reported. […] Compounds with no measurable activity are designated as “>30,000 nM” since the top concentration of compound tested in the assay is 30 μM.

rat mGlu2, sequence (P31421 19-872): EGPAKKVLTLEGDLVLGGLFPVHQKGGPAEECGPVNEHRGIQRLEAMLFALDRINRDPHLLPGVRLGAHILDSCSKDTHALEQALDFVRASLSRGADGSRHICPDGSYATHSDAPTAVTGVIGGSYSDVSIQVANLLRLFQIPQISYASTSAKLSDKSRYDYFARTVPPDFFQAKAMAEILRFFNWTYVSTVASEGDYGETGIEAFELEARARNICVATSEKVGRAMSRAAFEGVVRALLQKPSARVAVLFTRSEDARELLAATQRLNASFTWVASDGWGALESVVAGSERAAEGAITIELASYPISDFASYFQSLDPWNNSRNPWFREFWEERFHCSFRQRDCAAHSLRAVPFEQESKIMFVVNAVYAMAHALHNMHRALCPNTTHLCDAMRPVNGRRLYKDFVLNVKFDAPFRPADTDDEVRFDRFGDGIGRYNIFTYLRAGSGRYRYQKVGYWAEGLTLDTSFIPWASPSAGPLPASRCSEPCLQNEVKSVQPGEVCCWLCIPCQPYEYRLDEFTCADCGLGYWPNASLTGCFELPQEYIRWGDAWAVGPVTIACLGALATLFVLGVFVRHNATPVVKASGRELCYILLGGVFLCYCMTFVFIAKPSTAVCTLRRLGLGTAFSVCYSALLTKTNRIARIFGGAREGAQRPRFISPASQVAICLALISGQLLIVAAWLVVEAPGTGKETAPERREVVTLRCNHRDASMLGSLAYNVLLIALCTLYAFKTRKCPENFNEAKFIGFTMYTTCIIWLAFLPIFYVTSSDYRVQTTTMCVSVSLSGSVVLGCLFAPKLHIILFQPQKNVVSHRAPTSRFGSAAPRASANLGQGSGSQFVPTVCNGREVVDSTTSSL

SMILES | IC50 | remaining activity at 30 µM | NAM designation
N#Cc1cc(-c2ccc(F)cc2)c(OCc2ccc(Cl)nc2)cn1 [Compound 7, 5-((6-Chloropyridin-3-yl)methoxy)-4-(4-fluorophenyl)picolinonitrile] | > 30 µM | – | –
NC(=O)c1cc(-c2ccc(F)cc2)c(OCc2ccc(Cl)nc2)cn1 [Compound 8, 5-((6-chloropyridin-3-yl)methoxy)-4-(4-fluorophenyl)picolinamide] | 0.429 µM | 2% | –
N#Cc1cccc(COc2cnc(C#N)cc2-c2ccc(F)cc2)c1 [Compound 11, 5-((3-cyanobenzyl)oxy)-4-(4-fluorophenyl)picolinonitrile] | 7.11 µM | 29.9% | –
COc1ccc(COc2cnc(C#N)cc2-c2ccc(F)cc2)cn1 [Compound 15, 4-(4-fluorophenyl)-5-((6-methoxypyridin-3-yl)methoxy)picolinonitrile] | > 30 µM | – | –
CC(Oc1cnc(C#N)cc1-c1ccc(F)cc1)c1cccnc1 (centres unmarked) [Compound 16, 4-(4-fluorophenyl)-5-(1-(pyridin-3-yl)ethoxy)picolinonitrile] | > 30 µM | – | –
CC(Oc1cnc(C#N)cc1-c1ccc(F)cc1)c1ccncc1 (centres unmarked) [Compound 19, 4-(4-fluorophenyl)-5-(1-(pyridin-4-yl)ethoxy)picolinonitrile] | > 10 µM | 27.1% | –
N#Cc1cc(-c2ccc(F)cc2)c(OCc2ccnc(C(F)(F)F)c2)cn1 [Compound 20, 4-(4-fluorophenyl)-5-((2-(trifluoromethyl)pyridin-4-yl)methoxy)picolinonitrile] | > 10 µM | 37.9% | –
N#Cc1cc(-c2ccc(F)cc2)c(OCc2ccc3nccn3c2)cn1 [Compound 21, 4-(4-fluorophenyl)-5-(imidazo[1,2-a]pyridin-6-ylmethoxy)picolinonitrile] | 3.49 µM | 16.1% | –
N#Cc1cc(-c2ccc(F)cc2)c(OC2CCN(c3ccnc(C(F)(F)F)c3)CC2)cn1 [Compound 26, 4-(4-fluorophenyl)-5-((1-(2-(trifluoromethyl)pyridin-4-yl)piperidin-4-yl)oxy)picolinonitrile] | > 30 µM | – | –
N#Cc1cc(-c2ccc(F)cc2)c(OC2CCN(c3ccnc(C(F)(F)F)c3)C2)cn1 (centres unmarked) [Compound 27, 4-(4-fluorophenyl)-5-((1-(2-(trifluoromethyl)pyridin-4-yl)pyrrolidin-3-yl)oxy)picolinonitrile] | > 30 µM | – | –
N#Cc1cc(-c2ccc(F)cc2)c(OC2CN(c3ccnc(C(F)(F)F)c3)C2)cn1 [Compound 28, 4-(4-fluorophenyl)-5-((1-(2-(trifluoromethyl)pyridin-4-yl)azetidin-3-yl)oxy)picolinonitrile] | > 30 µM | – | –
N#Cc1cc(-c2ccc(F)cc2)c(OCCOCc2ccccc2)cn1 [Compound 29, 5-(2-(benzyloxy)ethoxy)-4-(4-fluorophenyl)picolinonitrile] | 4.25 µM | 65.2% | (Partial NAM)
NC(=O)c1cc(-c2ccc(F)cc2)c(OCc2cc(F)cc(F)c2)cn1 [Compound 30, 5-((3,5-difluorobenzyl)oxy)-4-(4-fluorophenyl)picolinamide] | 0.401 µM | 18.7% | (Partial NAM)
COc1ccc(-c2cc(C(N)=O)ncc2OCc2cc(F)cc(F)c2)c(F)c1 [Compound 31, 5-((3,5-difluorobenzyl)oxy)-4-(2-fluoro-4-methoxyphenyl)picolinamide] | 0.395 µM | 1.46% | (Partial NAM)
NC(=O)c1cc(-c2ccc(C(F)(F)F)nc2)c(OCc2cc(F)cc(F)c2)cn1 [Compound 32, 5′-((3,5-difluorobenzyl)oxy)-6-(trifluoromethyl)[3,4′-bipyridine]-2′-carboxamide] | > 10 µM | 35.1% | –
NC(=O)c1cc(-c2ccc(F)cc2)c(OCc2ccc(Br)cc2)cn1 [Compound 33, 5-((4-bromobenzyl)oxy)-4-(4-fluorophenyl)picolinamide] | 1.69 µM | 2.29% | –

Other lines, results leading:

IC50 | remaining activity at 30 µM | NAM designation | SMILES
6.85 µM | 5.12% | – | N#Cc1cc(-c2ccc(F)cc2)c(NCC2CCOCC2)cn1 [Compound 1, 4-(4-fluorophenyl)-5-(((tetrahydro-2H-pyran-4-yl)methyl)amino)picolinonitrile]
> 10 µM | 47.5% | – | N#Cc1cc(-c2ccc(F)cc2)c(NCCN2CCOCC2)cn1 [Compound 2, 4-(4-fluorophenyl)-5-((2-morpholinoethyl)amino)picolinonitrile]
> 10 µM | 52.4% | – | CN(CCN1CCOCC1)c1cnc(C#N)cc1-c1ccc(F)cc1 [Compound 3, 4-(4-fluorophenyl)-5-(methyl(2-morpholinoethyl)amino)picolinonitrile]
> 10 µM | 46.6% | – | CC(CN1CCOCC1)Nc1cnc(C#N)cc1-c1ccc(F)cc1 (centres unmarked) [Compound 4, 4-(4-fluorophenyl)-5-((1-morpholinopropan-2-yl)amino)picolinonitrile]
> 10 µM | 36.2% | – | CC(CNc1cnc(C#N)cc1-c1ccc(F)cc1)N1CCOCC1 (centres unmarked) [Compound 5, 4-(4-fluorophenyl)-5-((2-morpholinopropyl)amino)picolinonitrile]
> 10 µM | 49.2% | – | N#Cc1cc(-c2ccc(F)cc2)c(NCCCN2CCOCC2)cn1 [Compound 6, 4-(4-fluorophenyl)-5-((3-morpholinopropyl)amino)picolinonitrile]
> 30 µM | – | – | N#Cc1cc(-c2ccc(F)cc2)c(OCC2CCOCC2)cn1 [Compound 9, 4-(4-fluorophenyl)-5-((tetrahydro-2H-pyran-4-yl)methoxy)picolinonitrile]
> 10 µM | 37% | – | N#Cc1cc(-c2ccc(F)cc2)c(OCc2cccnc2)cn1 [Compound 10, 4-(4-fluorophenyl)-5-(pyridin-3-ylmethoxy)picolinonitrile]
> 30 µM | – | – | N#Cc1cc(-c2ccc(F)cc2)c(OCc2cc(F)cc(F)c2)cn1 [Compound 12, 5-((3,5-difluorobenzyl)oxy)-4-(4-fluorophenyl)picolinonitrile]
> 30 µM | – | – | N#Cc1cc(-c2ccc(F)cc2)c(OCc2cncc(Cl)c2)cn1 [Compound 13, 5-((5-chloropyridin-3-yl)methoxy)-4-(4-fluorophenyl)picolinonitrile]
> 30 µM | – | – | Cc1ccc(COc2cnc(C#N)cc2-c2ccc(F)cc2)cn1 [Compound 14, 4-(4-fluorophenyl)-5-((6-methylpyridin-3-yl)methoxy)picolinonitrile]
1.58 µM | 62% | (Partial NAM) | N#Cc1cc(-c2ccc(F)cc2)c(OCc2ccncc2)cn1 [Compound 17, 4-(4-fluorophenyl)-5-(pyridin-4-ylmethoxy)picolinonitrile]
2.69 µM | 47.5% | (Partial NAM) | Cc1cc(COc2cnc(C#N)cc2-c2ccc(F)cc2)ccn1 [Compound 18, 4-(4-fluorophenyl)-5-((2-methylpyridin-4-yl)methoxy)picolinonitrile]
> 10 µM | 11.1% | – | Cn1ccc(COc2cnc(C#N)cc2-c2ccc(F)cc2)n1 [Compound 22, 4-(4-fluorophenyl)-5-((1-methyl-1H-pyrazol-3-yl)methoxy)picolinonitrile]
> 30 µM | – | – | N#Cc1cc(-c2ccc(F)cc2)c(OCCc2cccnc2)cn1 [Compound 23, 4-(4-fluorophenyl)-5-(2-(pyridin-3-yl)ethoxy)picolinonitrile]
> 30 µM | – | – | N#Cc1cc(-c2ccc(F)cc2)c(OCCN2CCOCC2)cn1 [Compound 24, 4-(4-fluorophenyl)-5-(2-morpholinoethoxy)picolinonitrile]
> 10 µM | 39% | – | N#Cc1cc(-c2ccc(F)cc2)c(OCCOc2cccnc2)cn1 [Compound 25, 4-(4-fluorophenyl)-5-(2-(pyridin-3-yloxy)ethoxy)picolinonitrile]
